In one test the target is T1, 5-HT1A receptors (Rattus norvegicus, UniProt P19327).
T1 construct: stereotyped forepaw treading induced in rats by subcutaneous injection of 8-OH-DPAT; from tissue; host or cells: whole animal (male Sprague-Dawley rats), endogenous post-synaptic receptors
T1 sequence (P19327 1-422): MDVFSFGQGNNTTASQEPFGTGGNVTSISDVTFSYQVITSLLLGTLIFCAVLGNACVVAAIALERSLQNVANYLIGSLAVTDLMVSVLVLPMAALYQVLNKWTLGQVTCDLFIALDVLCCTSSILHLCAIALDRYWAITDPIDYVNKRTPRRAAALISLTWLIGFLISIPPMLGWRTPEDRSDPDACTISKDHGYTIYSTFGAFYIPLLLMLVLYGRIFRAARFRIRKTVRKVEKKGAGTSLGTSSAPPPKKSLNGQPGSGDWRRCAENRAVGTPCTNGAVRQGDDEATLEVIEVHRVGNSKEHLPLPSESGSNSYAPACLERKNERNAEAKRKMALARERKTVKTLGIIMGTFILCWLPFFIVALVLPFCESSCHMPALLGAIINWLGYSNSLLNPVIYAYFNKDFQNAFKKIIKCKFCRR
The test is described as follows: Inhibition of stereotypy (rhythmic forepaw treading) induced by 8-OH-DPAT in rats (post-synaptic antagonism). The format is in vivo. The following applies: 10 mg/kg p.o.; for % Inhibition of forepaw treading, 1 h: given 1 h before 8-OH-DPAT (1 mg/kg s.c.); for % Inhibition of forepaw treading, 4 h: given 4 h before 8-OH-DPAT (1 mg/kg s.c.). The procedure:
The inhibitory effect of 5-HT1A-receptor antagonists on stereotyped forepaw treading induced in rats by subcutaneous injection of 8-OH-DPAT was evaluated by the method of Tricklebank (Tricklebank et al., Eur. J. Pharmacol., 117: 15, 1985) with minor modifications as described below.
Male Sprague-Dawley rats[Crl: CD® (SD) IGS BR] weighing 150-175 g from Charles River Italia were used. The animals were housed with free access to food and water and maintained on a forced 12-hour-light/12-hour-dark cycle at 22-24° C. of temperature. On the day of the experiment, the rats were placed singly in clear plastic containers, 10-15 minutes before administration of the vehicle or compounds to be tested. For evaluation of antagonistic activity after oral administration, the compounds were administered 1 and 4 hours before induction of stereotypy by 8-OH-DPAT (1 mg/kg subcutaneously). Observation sessions last 30 seconds and were begun 3 minutes after 8-OH-DPAT treatment and repeated every 3 minutes over a period of 15 minutes.
The appearance of the symptom induced by postsynaptic stimulation of 5-HT1A receptors was noted, and the intensity was scored using an intensity scale in which: 0=absent, 1=equivocal, 2=present and 3=intense. Behavioural scores for treated rats were accumulated throughout the observation time (5 observation periods) and expressed as mean values of 4 rats/dose. Change in mean values of treated animals in comparison with control (vehicle) group, expressed as per-cent inhibition, were used to quantify the antagonistic activity.

Test [1] deals with T2, human 5-HT1A-serotonergic receptor (Homo sapiens, UniProt P08908).
T2 construct: expressed in transfected cells; host or cells: HeLa (human), stably transfected; membrane preparation
T2 sequence (P08908 1-422): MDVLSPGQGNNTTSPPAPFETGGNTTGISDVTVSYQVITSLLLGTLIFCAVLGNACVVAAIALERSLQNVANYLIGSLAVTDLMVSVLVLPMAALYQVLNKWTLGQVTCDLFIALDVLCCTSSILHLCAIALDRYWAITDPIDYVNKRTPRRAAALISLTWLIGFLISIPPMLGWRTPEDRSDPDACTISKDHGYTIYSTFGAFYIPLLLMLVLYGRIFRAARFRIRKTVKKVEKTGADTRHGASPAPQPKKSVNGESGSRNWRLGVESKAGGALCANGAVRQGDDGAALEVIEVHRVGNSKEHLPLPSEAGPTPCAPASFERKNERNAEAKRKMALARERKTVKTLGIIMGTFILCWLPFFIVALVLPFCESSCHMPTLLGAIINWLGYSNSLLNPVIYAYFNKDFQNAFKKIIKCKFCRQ
The test is described as follows: Radioligand binding to recombinant 5-HT1A receptors ([3H]8-OH-DPAT, HeLa cell membranes). Conditions: 1 nM [3H]8-OH-DPAT; Ki from IC50 by Cheng & Prusoff; read-out: Ki, binding affinity for 5-HT1A receptors. The protocol:
Genomic clone coding for the human 5-HT1A-serotonergic receptor was stably transfected in a human cell line (HeLa). HeLa cells were grown as monolayers in Dulbecco's modified Eagle medium (DMEM), containing 10% foetal bovine serum, gentamycin (0.1 mg/ml) and 5% carbon dioxide, at 37° C. The cells were detached from the growth flask at 95% confluence by a cell scraper and were lysed in cold 5 mM Tris and 5 mM EDTA buffer (pH 7.4). The homogenates were centrifuged at 40000×g×20 minutes and the pellets were resuspended in a small volume of cold 5 mM Tris and 5 mM EDTA buffer (pH 7.4) and immediately frozen and stored at −70° C. until use. On the day of experiment, the cell membranes were resuspended in incubation buffer: 50 mM Tris HCl (pH 7.4), 2.5 mM MgCl2, […] (Fargin et al., Nature 335, 358-360, 1988). The membranes were incubated in a final volume of 1 ml for 30 minutes at 30° C. with 1 nM [^3H]8-OH-DPAT, in the absence or presence of the test compounds. Non-specific binding was determined in the presence of 10 μM 5-HT. Incubation was stopped by addition of cold Tris-HC1 buffer and rapid filtration through a 0.2%-polyethyleneimine-pretreated Whatman-GF/B or Schleicher-&-Schuell-GF52 filter.
The affinities of the tested compounds were evaluated as inhibition of specific binding of the radioligand to 5-HT1A receptors (IC50) by using the non-linear curve-fitting program Allfit (De Lean et al., Am. J. Physiol. 235, E97-E102 (1978). The IC50 value was converted to an affinity constant (Ki) by the equation of Cheng & Prusoff (Cheng Y. C., Prusoff W. H., Biochem. Pharmacol. 22, 3099-3108 (1973)).

pKi: −log10 of the molar value.

Data on ten compounds can be found in patent US20040072839A1, “1-Phenylalkylpiperazines” (priority 2002, published 2004).

By pKi is commonly meant the negative decadic logarithm of the Ki, by convention in mol/L. With `CCNC(=O)O[C@@H](C1CCCCC1)[C@H](CCN1CCN(c2ccccc2OC)CC1)c1ccccc1F` (racemic) [Example 47, (RS,SR) 1-[4-Cyclohexyl-4-ethylaminocarbonyloxy-3-(2-fluorophenyl)butyl]-4-(2-methoxyphenyl)piperazine], on 5-HT1A receptors, the “% Inhibition of forepaw treading, 1 h” value is listed as 56% and the “% Inhibition of forepaw treading, 4 h” value came out at 58%. In test [1], the pKi was 9.07.
Turning to `COc1ccccc1N1CCN(CC[C@H](c2ccccc2F)[C@@H](OC(N)=O)C2CCCCC2)CC1` (racemic) [Example 48, (RS,SR) 1-[4-Aminocarbonyloxy-4-cyclohexyl-3-(2-fluorophenyl)butyl]-4-(2-methoxyphenyl)piperazine], at 5-HT1A receptors, the “% Inhibition of forepaw treading, 1 h” value is reported as 90% and the “% Inhibition of forepaw treading, 4 h” value stood at 74%. In addition, in test [1], the pKi was 9.44.
In the same order, the values of `CC#CC(O)C(CCN1CCN(c2cccc3c2OCCO3)CC1)c1ccccc1` (stereo not drawn) [Example 31, 1-[5-(2,3-Dihydro-1,4-benzodioxinyl)]-4-(4-hydroxy-3-phenylhept-5-ynyl)piperazine] are 60%, 18% and 8.57.
For `COc1cc(F)ccc1N1CCN(CCC(c2ccccc2)C(OC)C2CCCCC2)CC1` (stereo not drawn) [Example 18, 1-(4-Cyclohexyl-4-methoxy-3-phenylbutyl)-4-(4-fluoro-2-methoxyphenyl)piperazine], in test [1], the negative-log Ki (pKi) was 9.09.
`C=CC(O)C(CCN1CCN(c2cccc3c2OCCO3)CC1)c1ccccc1OC(F)(F)F` (stereo not drawn) [Example 7, 1-[5-(2,3-Dihydro-1,4-benzodioxinyl)]-4-[4-hydroxy-3-(2-trifluoromethoxyphenyl)hex-5-enyl]piperazine]: the negative-log Ki (pKi) in test [1] was 8.14.
For the compound `COc1cc(F)ccc1N1CCN(CCC(c2ccccc2C#N)C(O)C2CCCCC2)CC1` (stereo not drawn) [Example 16, 1-[3-(2-Cyanophenyl)-4-cyclohexyl-4-hydroxybutyl]-4-(4-fluoro-2-methoxyphenyl)piperazine], on 5-HT1A receptors, the “% Inhibition of forepaw treading, 1 h” value was 40% and the “% Inhibition of forepaw treading, 4 h” value is listed as 17%. Besides, the negative logarithm of the Ki (pKi) in test [1] was 9.05.
`C=CCOC(C1CCCCC1)C(CCN1CCN(c2ccc(F)cc2OC)CC1)c1ccccc1` (stereo not drawn) [Example 22, 1-(4-Allyloxy-4-cyclohexyl-3-phenylbutyl)-4-(4-fluoro-2-methoxyphenyl)piperazine]: the pKi in test [1] is 8.69.
The same measure, in the same setting: the same measure for `CN(C)C(=O)c1ccccc1C(CCN1CCN(c2cccc3c2OCCO3)CC1)C(=O)C1CCCCC1` (stereo not drawn) [Example 39, 1-[4-Cyclohexyl-3-(2-dimethylaminocarbonylphenyl)-4-oxobutyl]-4-[5-(2,3-dihydro-1,4-benzodioxinyl)]piperazine]: 8.53; for `N#Cc1ccccc1C(CCN1CCN(c2cccc3c2OCCO3)CC1)C(O)C1CCCCC1` (racemic) [Example 14b, (SR)-1-[3-(2-Cyanophenyl)-4-cyclohexyl-4-hydroxybutyl]-4-[5-(2,3-dihydro-1,4-benzodioxinyl)]piperazine]: 9.02.
With `COC(C1CCCCC1)C(CCN1CCN(c2ccccc2OCC(F)(F)F)CC1)c1ccccc1F` (stereo not drawn) [Example 1, 1-[4-Cyclohexyl-3-(2-fluorophenyl)-4-methoxybutyl]-4-[2-(2,2,2-trifluoroethoxy)phenyl]piperazine], in test [1], the pKi was 8.84.
